Measurements from patent US12065445B2, “CDK2 inhibitors and methods of using the same” (Cedilla Therapeutics, Inc., priority 2021, dated 2024).

Tested on: Kuramochi cells
Assay: BrdU Cell Proliferation Assay
Type: cell-based
Settings: read-out: BrdU - KURAMOCHI.1: IC50
Method: A BrdU assay was used as a measure of proliferation based on the DNA replication process of proliferating cells. BrdU, a pyrimidine analog, is added to the cell culture and incorporated into the DNA of proliferating cells. The presence of the BrdU analog was then measured through a colorimetric ELISA. After fixation and permeabilization of cells, peroxidase-conjugated antibody recognizing BrdU is added and allowed to incubate, followed by thorough washing to remove unbound antibody. In order to quantify the amount of bound antibody, peroxidase substrate is added and produces a color that can be measured at 450 nm.
On day −1, Kuramochi cells (Sekisui XenoTech JCRB0098) were seeded at 2,000 cells/well in columns 2-12 of a 96 well plate (Corning, CLS3596) in 150 μL media and allowed to adhere overnight at 37 degree with 5% CO2.
On day 0, the source plate was prepared by adding 10 mM compounds and performing 3-fold serial dilutions for a 10-point dose response of each compound. Using a multichannel pipette, 2 μL of the contents of the source plate were stamped into an intermediate plate with 500 μL of RPMI 1640 Media, GlutaMAX Supplement (Life Technologies, 61870127) in each well of a Nunc 96 DeepWell™ plate, non-treated 96 DeepWell plate, 2 mL/well, sterile, natural, 60/cs (Sigma Z717274) and mixed thoroughly. 50 μL from each well of this intermediate plate were added to 4 wells of a 96-well plate with previously seeded Kuramochi cells.
On day 4, the plates were developed using the BrdU ELISA Cell Proliferation Assay according to manufacturer's instructions (Roche, 11647229001). Briefly, BrdU was diluted 1:100 in Gibco®, OptiMEM® and 20 μL/well was added, shaken for 10 minutes at 350 rpm, and then returned to the incubator for 1 hour. Following incubation, the medium was discarded, and the cells were fixed by adding 200 μL of Fix/Denature solution. The anti-BrdU peroxidase antibody was diluted 1:1000 in OptiMEM, added at 100 μL/well, and incubated while shaking (350 rpm) for one hour. Three washes with PBS were performed to remove any unbound antibody, followed by the addition of 100 μL of substrate solution to each well. 25 μL/well of 1M sulfuric acid solution was then added to halt the reaction, and plates were read out using an Envision spectrophotometer (Perkin Elmer) set to read 450 nm absorbance. Background absorbance values from empty wells were subtracted from all samples and then normalized to DMSO treated wells.

Compound | IC50
C[C@@H](OCc1ccccc1)[C@H](NC(=O)C1CN(C(=O)c2cnn(Cc3ccccc3)c2)CC12CN(C(=O)[C@H]1CC1(C)C)C2)C(=O)NCC#CCN (stereo partly shown) [I-28] | > 10 µM
C[C@@H](OCC1CCC(F)(F)CC1)[C@H](NC(=O)[C@@H]1CN(C(=O)c2cnn(Cc3ccc(F)cc3)c2)CC12CN(C(=O)C1(C(F)(F)F)CC1)C2)C(=O)N1CCC(F)(F)CC1 [I-190A] | ≤ 0.5 µM
CNC(=O)[C@@H](NC(=O)[C@H]1CN(C(=O)c2cnn(Cc3ccccc3)c2)CC12CN(C(=O)CC1(COC)CC1)C2)[C@@H](C)OCc1ccccc1 [I-82B] | > 10 µM
Cc1noc([C@H](C)NC(=O)[C@@H]2CN(C(=O)c3cnn(Cc4ccccc4)c3)CC23CN(C(=O)[C@H]2CC2(C)C)C3)n1 [I-158A] | > 10 µM
CC(C)O[C@H]1C[C@H](NC(=O)[C@@H]2CN(C(=O)c3cnn(Cc4ccccc4)c3)CC23CN(C(=O)[C@H]2CC2(C)C)C3)C1 [I-233] | > 10 µM
CO[C@H](C)[C@H](NC(=O)[C@@H]1CN(C(=O)c2cnn(C)c2)CC12CN(C(=O)[C@H]1CC1(C)C)C2)C(=O)N1CCCCC1 [I-303] | > 10 µM
C[C@@H](OCc1ccccc1)C(NC(=O)C1CN(C(=O)c2cnn(Cc3ccccc3)c2)CC12CN(C(=O)[C@H]1CC1(C)C)C2)C(=O)NCCOCCOCCO (stereo partly shown) [I-21] | > 10 µM
CN(C(=O)[C@H]1CCCN(C(=O)[C@@H]2CN(C(=O)c3cnn(Cc4ccccc4)c3)CC23CN(C(=O)[C@H]2CC2(C)C)C3)C1)C1CCCCC1 [I-179] | > 10 µM
CNC(=O)[C@@H](NC(=O)[C@@H]1CN(C(=O)c2cnn(Cc3ccccc3)c2)CC12CN(C(=O)[C@H]1CC1(C)C)C2)[C@@H](C)OCc1ccncc1 [I-244] | > 10 µM
COCCNC(=O)[C@H]1CN(C(=O)c2cnn(Cc3ccccc3)c2)CC12CN(C(=O)[C@H]1CC1(C)C)C2 [I-122B] | > 10 µM
C[C@@H](O)[C@H](NC(=O)[C@@H]1CN(C(=O)c2cnn(C)c2)CC12CN(C(=O)[C@H]1CC1(C)C)C2)C(=O)N1CCCCC1 [I-305] | 0.5 to 5 µM
CNC(=O)[C@@H](NC(=O)[C@@H]1CN(C(=O)c2ccncc2)CC12CN(C(=O)[C@H]1CC1(C)C)C2)[C@@H](C)OCc1ccccc1 [I-46A] | > 10 µM
CNC(=O)[C@@H](NC(=O)[C@H]1CN(C(=O)c2cnn(Cc3ccc(F)cc3)c2)CC12CN(C(=O)[C@H]1CC1(C)C)C2)[C@@H](C)OCC1CCC(F)(F)CC1 [I-167] | > 10 µM
CNC(=O)[C@@H](NC(=O)[C@H]1CN(C(=O)c2cnn(Cc3ccccc3)c2)CC12CN(C(=O)[C@H]1CC1(C)C)C2)[C@@H](C)OCC1CCC1 [I-144B] | > 10 µM
CNC(=O)[C@@H](NC(=O)[C@H]1CN(C(=O)c2ccccn2)CC12CN(C(=O)[C@H]1CC1(C)C)C2)[C@@H](C)OCc1ccccc1 [I-45B] | > 10 µM
C[C@@H](OCC1CCCCC1)[C@H](NC(=O)[C@@H]1CN(C(=O)c2cnn(Cc3ccccc3)c2)CC12CN(C(=O)[C@H]1CC1(C)C)C2)C(=O)N1CCC[C@@H]1CN [I-238] | > 10 µM
CNC(=O)[C@@H](NC(=O)[C@H]1CN(C(=O)c2cnn(Cc3ccccc3)c2)CC12CN(C(=O)Cc1ccccc1)C2)[C@@H](C)OCc1ccccc1 [I-25B] | > 10 µM
C[C@@H](NC(=O)[C@H]1CN(C(=O)c2cnn(Cc3ccccc3)c2)CC12CN(C(=O)[C@H]1CC1(C)C)C2)c1cccc(F)c1 [I-128B] | > 10 µM
C[C@@H](OCC1CCCCC1)[C@H](NC(=O)C1CN(C(=O)C2CCC(=O)N(C)C2)CC12CN(C(=O)[C@H]1CC1(C)C)C2)C(=O)N1CCCCC1 (stereo partly shown) [I-242] | > 10 µM
CNC(=O)[C@@H](NC(=O)[C@H]1CN(C(=O)c2cnn(Cc3ccccc3)c2)CC12CN(C(=O)C1(C(F)(F)F)CC1)C2)[C@@H](C)OCc1ccccc1 [I-108B] | > 10 µM
CNC(=O)[C@@H](NC(=O)[C@@H]1CN(C(=O)c2cnn(Cc3ccccc3)c2)CC12CN(C(=O)CC1(CO)CC1)C2)[C@@H](C)OCc1ccccc1 [I-92A] | > 10 µM
CC1(C)C[C@@H]1C(=O)N1CC2(CN(C(=O)c3cnn(Cc4ccccc4)c3)C[C@@H]2C(=O)N2CCC(Cc3ccccc3)CC2)C1 [I-58B] | > 10 µM
CC1(C)C[C@@H]1C(=O)N1CC2(CN(C(=O)c3cnn(Cc4ccccc4)c3)C[C@@H]2C(=O)N2CCCC(Cc3ccccc3)C2)C1 (stereo partly shown) [I-91B] | > 10 µM

Compound | IC50
CNC(=O)[C@@H](NC(=O)[C@@H]1CN(C(=O)c2cnn(CC3CCOCC3)c2)CC12CN(C(=O)[C@H]1CC1(C)C)C2)[C@@H](C)OCC1CCCCC1 [I-121A] | 5 to 10 µM
CNC(=O)[C@@H](NC(=O)[C@@H]1CN(Cc2cnn(C)c2)CC12CN(C(=O)[C@H]1CC1(C)C)C2)[C@@H](C)OCc1ccccc1 [I-47A] | > 10 µM
COCC1CCCN(C(=O)[C@@H](NC(=O)C2CN(C(=O)c3cnn(Cc4ccccc4)c3)CC23CN(C(=O)[C@H]2CC2(C)C)C3)[C@@H](C)OCc2ccccc2)C1 (stereo partly shown) [I-64] | 0.5 to 5 µM
CNC(=O)[C@@H](NC(=O)[C@H]1CN(C(=O)c2cnn(Cc3ccccc3)c2)CC12CN(C(=O)C1(C#N)CC1)C2)[C@@H](C)OCc1ccccc1 [I-73B] | > 10 µM
CCC(CC)C(=O)N1CC2(CN(C(=O)c3cnn(Cc4ccccc4)c3)C[C@H]2C(=O)N[C@H](C(=O)NC)[C@@H](C)OCc2ccccc2)C1 [I-74A] | > 10 µM
CC1(C)C[C@@H]1C(=O)N1CC2(CN(C(=O)c3cnn(Cc4ccccc4)c3)C[C@H]2C(=O)N2CC[C@H](OCC3CCCCC3)C2)C1 [I-256] | 5 to 10 µM
CNC(=O)[C@@H](NC(=O)[C@H]1CN(C(=O)c2cnn(Cc3ccccc3)c2)CC12CN(C(=O)C1(CCF)CC1)C2)[C@@H](C)OCc1ccccc1 [I-117B] | > 10 µM
CNC(=O)[C@@H](NC(=O)[C@H]1CN(C(=O)c2cnn(CC3CCOCC3)c2)CC12CN(C(=O)[C@H]1CC1(C)C)C2)[C@@H](C)OCC1CCCCC1 [I-121B] | > 10 µM
CNC(=O)[C@@H](NC(=O)[C@@H]1CN(C(=O)c2cnn(Cc3ccc(F)cc3)c2)CC12CN(C(=O)[C@H]1CC1(C)C)C2)[C@@H](C)OCC1CCC(F)(F)CC1 [I-170] | 0.5 to 5 µM
COc1cccc(CNC(=O)[C@H]2CN(C(=O)c3cnn(Cc4ccccc4)c3)CC23CN(C(=O)[C@H]2CC2(C)C)C3)n1 [I-126B] | > 10 µM
CNC(=O)[C@@H](NC(=O)[C@H]1CN(C(=O)c2scnc2C)CC12CN(C(=O)[C@H]1CC1(C)C)C2)[C@@H](C)OCC1CCCCC1 [I-160B] | > 10 µM
CNC(=O)[C@@H](NC(=O)[C@@H]1CN(C(=O)c2cnn(CC3CCN(C)CC3)c2)CC12CN(C(=O)[C@H]1CC1(C)C)C2)[C@@H](C)OCc1ccccc1 [I-23A] | > 10 µM
CC1(C)C[C@@H]1C(=O)N1CC2(CN(C(=O)c3cnn(Cc4ccccc4)c3)C[C@@H]2C(=O)NCCOCc2ccccc2)C1 [I-96B] | > 10 µM
CCCC(=O)N1CC2(C1)CN(C(=O)c1cnn(Cc3ccccc3)c1)C[C@@H]2C(=O)N[C@H](C(=O)NC)[C@@H](C)OCc1ccccc1 [I-60B] | > 10 µM
CNC(=O)[C@@H](NC(=O)[C@@H]1CN(C(=O)c2cnn(Cc3ccccc3)c2)CC12CN(C(=O)CC(C)(C)C)C2)[C@@H](C)OCc1ccccc1 [I-62A] | > 10 µM
C[C@@H](OCc1ccccc1)[C@H](NC(=O)C1CN(C(=O)c2cnn(Cc3ccccc3)c2)CC12CN(C(=O)[C@H]1CC1(C)C)C2)C(=O)NCCN (stereo partly shown) [I-31] | > 10 µM
CNC(=O)[C@H](COCc1ccccc1)NC(=O)[C@@H]1CN(C(=O)c2cnn(Cc3ccccc3)c2)CC12CN(C(=O)C1(C(F)(F)F)CC1)C2 [I-113A, (S)-6-(1-benzyl-1H-pyrazole-4-carbonyl)-N—((S)-3-(benzyloxy)-1-(methylamino)-1-oxopropan-2-yl)-2-(1-(trifluoromethyl)cyclopropane-1-carbonyl)-2,6-diazaspiro[3.4]octane-8-carboxamide] | > 10 µM
CNC(=O)[C@@H](NC(=O)[C@@H]1CN(CC2CCOCC2)CC12CN(C(=O)[C@H]1CC1(C)C)C2)[C@@H](C)OCc1ccccc1 [I-68A] | > 10 µM
CNC(=O)[C@@H](NC(=O)[C@@H]1CN(C(=O)c2cnn(Cc3ccccc3)c2)CC12CN(C(=O)C(C)C)C2)[C@@H](C)OCc1ccccc1 [I-54A] | > 10 µM
CNC(=O)[C@@H](NC(=O)[C@H]1CN(C(=O)c2sc(Cl)nc2Cl)CC12CN(C(=O)[C@H]1CC1(C)C)C2)[C@@H](C)OCC1CCCCC1 [I-232B] | > 10 µM
CCCCC1CC1C(=O)N1CC2(CN(C(=O)c3cnn(Cc4ccccc4)c3)C[C@@H]2C(=O)N[C@H](C(=O)NC)[C@@H](C)OCc2ccccc2)C1 (stereo partly shown) [I-94B] | > 10 µM
C[C@@H](OCC1CCCCC1)[C@H](NC(=O)[C@H]1CN(C(=O)c2cn[nH]c2)CC12CN(C(=O)[C@H]1CC1(C)C)C2)C(=O)N1CCCCC1 [I-151B] | > 10 µM
CNC(=O)[C@@H](NC(=O)[C@H]1CN(C(=O)c2ccncc2)CC12CN(C(=O)[C@H]1CC1(C)C)C2)[C@@H](C)OCc1ccccc1 [I-46B] | > 10 µM
